# Marks after values point to notes of the source that are not given here.
# Tested on: third stage larvae of Haemonchus contortus
# Assay: Haemonchus contortus, Larvae Stage 3 (HcL3) In Vitro Assay
# Assay type: cell-based
# Conditions: Haemonchus contortus third stage larvae in vitro; class mark appended to the Ex # in Table 3
row,SMILES,HcL3 MED
1,Cc1nc(Cc2ccc(C[C@H]3OC(=O)[C@H](CC(C)C)N(C)C(=O)[C@@H](C)OC(=O)[C@H](CC(C)C)N(C)C(=O)[C@@H](Cc4ccc(Cc5nc(C)oc5C)cc4)OC(=O)[C@H](CC(C)C)N(C)C(=O)[C@@H](C)OC(=O)[C@H](CC(C)C)N(C)C3=O)cc2)c(C)o1 [Example 3-81],3-81^ (Examples with a carrot (^) have HcL3 MED values>1 and ≤3.3 μM)
2,COc1cc(Cc2ccc(C[C@H]3OC(=O)[C@H](CC(C)C)N(C)C(=O)[C@@H](C)OC(=O)[C@H](CC(C)C)N(C)C(=O)[C@@H](Cc4ccc(Cc5cnc(OC)c(OC)c5)cc4)OC(=O)[C@H](CC(C)C)N(C)C(=O)[C@@H](C)OC(=O)[C@H](CC(C)C)N(C)C3=O)cc2)cnc1OC [Example 3-115],3-115^ (Examples with a carrot (^) have HcL3 MED values>1 and ≤3.3 μM)
3,CC(C)C[C@H]1C(=O)O[C@H](Cc2ccc(Cc3cnn(C(F)F)c3)cc2)C(=O)N(C)[C@@H](CC(C)C)C(=O)O[C@H](C)C(=O)N(C)[C@@H](CC(C)C)C(=O)O[C@H](Cc2ccc(Cc3cnn(C(F)F)c3)cc2)C(=O)N(C)[C@@H](CC(C)C)C(=O)O[C@H](C)C(=O)N1C [Example 3-119],3-119* (Examples with an asterisk (*) have HcL3 MED values≤1 μM)
4,Cc1nnsc1C(O)c1ccc(C[C@H]2OC(=O)[C@H](CC(C)C)N(C)C(=O)[C@@H](C)OC(=O)[C@H](CC(C)C)N(C)C(=O)[C@@H](Cc3ccc(C(O)c4snnc4C)cc3)OC(=O)[C@H](CC(C)C)N(C)C(=O)[C@@H](C)OC(=O)[C@H](CC(C)C)N(C)C2=O)cc1 (stereo partly shown) [Example 3-126],3-126* (Examples with an asterisk (*) have HcL3 MED values≤1 μM)
5,COc1cc(Cc2ccc(C[C@H]3OC(=O)[C@H](CC(C)C)N(C)C(=O)[C@@H](C)OC(=O)[C@H](CC(C)C)N(C)C(=O)[C@@H](Cc4ccc(Cc5ccnc(OC)c5)cc4)OC(=O)[C@H](CC(C)C)N(C)C(=O)[C@@H](C)OC(=O)[C@H](CC(C)C)N(C)C3=O)cc2)ccn1 [Example 3-192],3-192^ (Examples with a carrot (^) have HcL3 MED values>1 and ≤3.3 μM)
6,CC(C)C[C@H]1C(=O)O[C@H](Cc2ccc(Cc3ccnn3CC(C)C)cc2)C(=O)N(C)[C@@H](CC(C)C)C(=O)O[C@H](C)C(=O)N(C)[C@@H](CC(C)C)C(=O)O[C@H](Cc2ccc(Cc3ccnn3CC(C)C)cc2)C(=O)N(C)[C@@H](CC(C)C)C(=O)O[C@H](C)C(=O)N1C [Example 3-211],3-211^ (Examples with a carrot (^) have HcL3 MED values>1 and ≤3.3 μM)
7,Cc1ncc(Cc2ccc(C[C@H]3OC(=O)[C@H](CC(C)C)N(C)C(=O)[C@@H](C)OC(=O)[C@H](CC(C)C)N(C)C(=O)[C@@H](Cc4ccc(Cc5cnc(C)o5)cc4)OC(=O)[C@H](CC(C)C)N(C)C(=O)[C@@H](C)OC(=O)[C@H](CC(C)C)N(C)C3=O)cc2)o1 [Example 3-298],3-298^ (Examples with a carrot (^) have HcL3 MED values>1 and ≤3.3 μM)
8,CC(C)C[C@H]1C(=O)O[C@H](Cc2ccc(Cc3cc[nH]n3)cc2)C(=O)N(C)[C@@H](CC(C)C)C(=O)O[C@H](C)C(=O)N(C)[C@@H](CC(C)C)C(=O)O[C@H](Cc2ccc(Cc3cc[nH]n3)cc2)C(=O)N(C)[C@@H](CC(C)C)C(=O)O[C@H](C)C(=O)N1C [Example 3-301],3-301^ (Examples with a carrot (^) have HcL3 MED values>1 and ≤3.3 μM)
9,CCCn1nccc1Cc1ccc(C[C@H]2OC(=O)[C@H](CC(C)C)N(C)C(=O)[C@@H](C)OC(=O)[C@H](CC(C)C)N(C)C(=O)[C@@H](Cc3ccc(Cc4ccnn4CCC)cc3)OC(=O)[C@H](CC(C)C)N(C)C(=O)[C@@H](C)OC(=O)[C@H](CC(C)C)N(C)C2=O)cc1 [Example 3-303],3-303* (Examples with an asterisk (*) have HcL3 MED values≤1 μM)
10,CC(C)C[C@H]1C(=O)O[C@H](Cc2ccc(Cc3ccnn3C(C)C)cc2)C(=O)N(C)[C@@H](CC(C)C)C(=O)O[C@H](C)C(=O)N(C)[C@@H](CC(C)C)C(=O)O[C@H](Cc2ccc(Cc3ccnn3C(C)C)cc2)C(=O)N(C)[C@@H](CC(C)C)C(=O)O[C@H](C)C(=O)N1C [Example 3-305],3-305* (Examples with an asterisk (*) have HcL3 MED values≤1 μM)

# From patent US11771738B2 (Zoetis Services LLC, priority 2018, dated 2023)
